Data reported in patent publication US20100311714A1, “1H-IMIDAZO[4,5-c]QUINOLINONE COMPOUNDS” (priority 2009, published 2010).

Test system: PKB Ser473 phosphorylation in Rat1-myr-HA-p110 delta cells
Experiment: Reverse protein array, PKB Ser473 phosphorylation in Rat1-myr-HA-p110 delta cells
Type: cell-based
Conditions: Rattus norvegicus, 0.5 h, 30 minutes compound incubation, read-out: p-PKB/IC50_delta

SMILES | IC50 [nM]
COc1cc(-c2ccc3ncc4c(c3c2)n(-c2ccc(F)nc2C)c(=O)n4C)cnc1CO [Example 7.10, 1-(6-Fluoro-2-methyl-pyridin-3-yl)-8-(6-hydroxymethyl-5-methoxy-pyridin-3-yl)-3-methyl-1,3-dihydro-imidazo[4,5-c]quinolin-2-one] | 315
Cc1nc(N2CC(O)C2)ccc1-n1c(=O)n(C)c2cnc3ccc(-c4cncc(C(C)(C)O)c4)cc3c21 [Example 29.1, 1-[6-(3-Hydroxy-azetidin-1-yl)-2-methyl-pyridin-3-yl]-8-[5-(1-hydroxy-1-methyl-ethyl)-pyridin-3-yl]-3-methyl-1,3-dihydro-imidazo[4,5-c]quinolin-2-one] | 350
COCc1ncc(-c2ccc3ncc4c(c3c2)n(-c2ccc(F)nc2C)c(=O)n4C)cc1OC [Example 7.7, 1-(6-Fluoro-2-methyl-pyridin-3-yl)-8-(5-methoxy-6-methoxymethyl-pyridin-3-yl)-3-methyl-1,3-dihydro-imidazo[4,5-c]quinolin-2-one] | 598
COc1cc(-c2ccc3ncc4c(c3c2)n(-c2ccc(N3CC(F)(F)C3)nc2C)c(=O)n4C)cnc1CO [Example 24.4, 1-[6-(3,3-Difluoro-azetidin-1-yl)-2-methyl-pyridin-3-yl]-8-(6-hydroxymethyl-5-methoxy-pyridin-3-yl)-3-methyl-1,3-dihydro-imidazo[4,5-c]quinolin-2-one] | 88.5
COc1cc(-c2ccc3ncc4c(c3c2)n(-c2ccc(N3CCCC3)nc2C)c(=O)n4C)cnc1CO [Example 25.4, 8-(6-Hydroxymethyl-5-methoxy-pyridin-3-yl)-3-methyl-1-(2-methyl-6-pyrrolidin-1-yl-pyridin-3-yl)-1,3-dihydro-imidazo[4,5-c]quinolin-2-one] | 58.1
COCc1ncc(-c2ccc3ncc4c(c3c2)n(-c2cccnc2C)c(=O)n4C)cc1OC [Example 2.30, 8-(5-Methoxy-6-methoxymethyl-pyridin-3-yl)-3-methyl-1-(2-methyl-pyridin-3-yl)-1,3-dihydro-imidazo[4,5-c]quinolin-2-one] | 336
CNc1ncc(-c2ccc3ncc4c(c3c2)n(-c2ccc(N3CC[C@H](O)C3)nc2C)c(=O)n4C)cc1Cl [Example 32.4, 8-(5-Chloro-6-methylamino-pyridin-3-yl)-1-[6-((S)-3-hydroxy-pyrrolidin-1-yl)-2-methyl-pyridin-3-yl]-3-methyl-1,3-dihydro-imidazo[4,5-c]quinolin-2-one] | 16
COc1cc(-c2ccc3ncc4c(c3c2)n(-c2ccc(N3CCC(OC)C3)nc2C)c(=O)n4C)cnc1CO (stereo not shown) [Example 28.3, 8-(6-Hydroxymethyl-5-methoxy-pyridin-3-yl)-1-[6-(3-methoxy-pyrrolidin-1-yl)-2-methyl-pyridin-3-yl]-3-methyl-1,3-dihydro-imidazo[4,5-c]quinolin-2-one] | 121
COc1ccc(-n2c(=O)n(C)c3cnc4ccc(-c5cncc(N6CCC6)c5)cc4c32)c(OC)n1 [Example 8.11, 8-(5-Azetidin-1-yl-pyridin-3-yl)-1-(2,6-dimethoxy-pyridin-3-yl)-3-methyl-1,3-dihydro-imidazo[4,5-c]quinolin-2-one] | 93.1
CNC(=O)c1ccc(-c2ccc3ncc4c(c3c2)n(-c2cccnc2C)c(=O)n4C)cc1 [Example 2.4, N-Methyl-4-[3-methyl-1-(2-methyl-pyridin-3-yl)-2-oxo-2,3-dihydro-1H-imidazo[4,5-c]quinolin-8-yl]-benzamide] | 29.1
COc1ccc(-n2c(=O)n(C)c3cnc4ccc(-c5cnc(C(OC)OC)c(OC)c5)cc4c32)c(OC)n1 [Example 8.13, 8-(6-Dimethoxymethyl-5-methoxy-pyridin-3-yl)-1-(2,6-dimethoxy-pyridin-3-yl)-3-methyl-1,3-dihydro-imidazo[4,5-c]quinolin-2-one] | 599
CNc1ncc(-c2ccc3ncc4c(c3c2)n(-c2ccc(N3CC[C@@H](O)C3)nc2C)c(=O)n4C)cn1 [Example 34.1, 1-[6-((R)-3-Hydroxy-pyrrolidin-1-yl)-2-methyl-pyridin-3-yl]-3-methyl-8-(2-methylamino-pyrimidin-5-yl)-1,3-dihydro-imidazo[4,5-c]quinolin-2-one] | 42
Cc1ncccc1-n1c(=O)n(C)c2cnc3ccc(-c4cnc5[nH]ccc5c4)cc3c21 [Example 2.8, 3-Methyl-1-(2-methyl-pyridin-3-yl)-8-(1H-pyrrolo[2,3-b]pyridin-5-yl)-1,3-dihydro-imidazo[4,5-c]quinolin-2-one] | 13.8
Cc1nc(N2CCC(O)C2)ccc1-n1c(=O)n(C)c2cnc3ccc(-c4cncc(C(C)(C)O)c4)cc3c21 (stereo not shown) [Example 27.5, 8-[5-(1-Hydroxy-1-methyl-ethyl)-pyridin-3-yl]-1-[6-(3-hydroxy-pyrrolidin-1-yl)-2-methyl-pyridin-3-yl]-3-methyl-1,3-dihydro-imidazo[4,5-c]quinolin-2-one] | 309
CCNc1cc(-c2ccc3ncc4c(c3c2)n(-c2ccc(N3CCCC3)nc2C)c(=O)n4C)cnc1CO [Example 25.5, 8-(5-Ethylamino-6-hydroxymethyl-pyridin-3-yl)-3-methyl-1-(2-methyl-6-pyrrolidin-1-yl-pyridin-3-yl)-1,3-dihydro-imidazo[4,5-c]quinolin-2-one] | 7.6
Cc1nc(F)ccc1-n1c(=O)n(C)c2cnc3ccc(-c4cncc(N5CCC5)c4)cc3c21 [Example 7.6, 8-(5-Azetidin-1-yl-pyridin-3-yl)-1-(6-fluoro-2-methyl-pyridin-3-yl)-3-methyl-1,3-dihydro-imidazo[4,5-c]quinolin-2-one] | 119
CCNc1cc(-c2ccc3ncc4c(c3c2)n(-c2ccc(N3CC(F)(F)C(F)(F)C3)nc2C)c(=O)n4C)cnc1CO [Example 35.2, 8-(5-Ethylamino-6-hydroxymethyl-pyridin-3-yl)-3-methyl-1-[2-methyl-6-(3,3,4,4-tetrafluoro-pyrrolidin-1-yl)-pyridin-3-yl]-1,3-dihydro-imidazo[4,5-c]quinolin-2-one] | 16.3
COc1cc(-c2ccc3ncc4c(c3c2)n(-c2ccc(N3CC[C@H](O)C3)nc2C)c(=O)n4C)cnc1CO [Example 32.7, 8-(6-Hydroxymethyl-5-methoxy-pyridin-3-yl)-1-[6-((S)-3-hydroxy-pyrrolidin-1-yl)-2-methyl-pyridin-3-yl]-3-methyl-1,3-dihydro-imidazo[4,5-c]quinolin-2-one] | 178
COc1ccc(-n2c(=O)n(C)c3cnc4ccc(-c5cnc(CO)c(OC)c5)cc4c32)c(OC)n1 [Example 8.14, 1-(2,6-Dimethoxy-pyridin-3-yl)-8-(6-hydroxymethyl-5-methoxy-pyridin-3-yl)-3-methyl-1,3-dihydro-imidazo[4,5-c]quinolin-2-one] | 186
CCNc1cc(-c2ccc3ncc4c(c3c2)n(-c2ccc(N(C)CCO)nc2C)c(=O)n4C)cnc1CO [Example 26.3, 8-(5-Ethylamino-6-hydroxymethyl-pyridin-3-yl)-1-{6-[(2-hydroxy-ethyl)-methyl-amino]-2-methyl-pyridin-3-yl}-3-methyl-1,3-dihydro-imidazo[4,5-c]quinolin-2-one] | 12.8
CCOc1ccc(-c2ccc3ncc4c(c3c2)n(-c2ccc(N3CCC(O)C3)nc2C)c(=O)n4C)cn1 (stereo not shown) [Example 27.4, 8-(6-Ethoxy-pyridin-3-yl)-1-[6-(3-hydroxy-pyrrolidin-1-yl)-2-methyl-pyridin-3-yl]-3-methyl-1,3-dihydro-imidazo[4,5-c]quinolin-2-one] | 38.1
Cn1c(=O)n(-c2cccnc2F)c2c3cc(-c4cnc5[nH]ccc5c4)ccc3ncc21 [Example 6.3, 1-(2-Fluoro-pyridin-3-yl)-3-methyl-8-(1H-pyrrolo[2,3-b]pyridin-5-yl)-1,3-dihydro-imidazo[4,5-c]quinolin-2-one] | 43.2
CNc1ncc(-c2ccc3ncc4c(c3c2)n(-c2ccc(N3CCC(OC)C3)nc2C)c(=O)n4C)cn1 (stereo not shown) [Example 28.2, 1-[6-(3-Methoxy-pyrrolidin-1-yl)-2-methyl-pyridin-3-yl]-3-methyl-8-(2-methylamino-pyrimidin-5-yl)-1,3-dihydro-imidazo[4,5-c]quinolin-2-one] | 22.9
COc1cc(-c2ccc3ncc4c(c3c2)n(-c2ccc(N)nc2C)c(=O)n4C)cnc1CO [Example 30.1, 1-(6-Amino-2-methyl-pyridin-3-yl)-8-(6-hydroxymethyl-5-methoxy-pyridin-3-yl)-3-methyl-1,3-dihydro-imidazo[4,5-c]quinolin-2-one] | 715
Cc1nc(N2CCC(O)C2)ccc1-n1c(=O)n(C)c2cnc3ccc(-c4cnc(N)c(C(F)(F)F)c4)cc3c21 (stereo not shown) [Example 27.3, 8-(6-Amino-5-trifluoromethyl-pyridin-3-yl)-1-[6-(3-hydroxy-pyrrolidin-1-yl)-2-methyl-pyridin-3-yl]-3-methyl-1,3-dihydro-imidazo[4,5-c]quinolin-2-one] | 8.9
